US9809597B2, “Ganciclovir derivatives for modulating innate and adaptive immunity and for use in immunotherapy” (The Board of Trustees of the Leland Stanford Junior …, priority 2015, dated 2017)

Key:
[1] = test system: wildtype and STING^gt/gt mice with EAE; assay: EAE induction and analysis; format: in vivo, mouse
[2] = test system: BV-2 microglia; assay: Cell viability (cell confluence, automated microscope); format: cell-based, mouse; settings: GCV dose response
Description: (§1) BV-2 mouse microglia cells were grown in DMEM+10% FBS and THP-1 human monocyte cells were grown in RPMI-40+10% FBS+0.05 mM β-mercaptoethanol at 37° C., 5% CO2. Adherent cells were split using 1×TrypLE (Gibco). For cellular assays, cells were treated with the following concentrations of drugs as indicated in the DMEM without serum: 100-200 μM ganciclovir, 10 ng/ml IFNγ (R&D systems), 100 ng/ml LPS (Sigma-Aldrich), 1-10 μM Fludarabine (Selleckchem), 1 μM Ruxolitinib (Selleckchem), 1 μM TG-101348 (Selleckchem), 1 μM Amlexanox (Tocris bioscience) unless otherwise noted. All experiments were run in triplicates and replicated at least 3 times with cell lines and at least twice with primary microglia. Average data are shown for cell lines and representative data are shown for primary cells. Secreted signaling proteins were measured in supernatants from cultured cells stimulated with GCV and conditioned for 24 hours in the absence of serum using two independent Luminex arrays (Human Immune Monitoring Center, Stanford and Eve technologies, Canada). Nitrite assay was performed on conditioned culture supernatants of cells stimulated with drugs for 24 hours using the Griess Reagent System (Promega) according to manufacturer's instructions. To assess cellular viability, cell confluence was measured using an automated microscope (Cellavista; Roche).

[3] = test system: IFNγ/LPS stimulated BV-2 microglia; assay: Nitrite assay (Griess) on culture supernatants; format: cell-based, mouse; settings: 24 hours
Description: as §1

[4] = test system: BV-2 microglia; assay: Secreted factors analyzed by Luminex array in BV-2 supernatants; format: cell-based, mouse
Description: as §1

[5] = test system: primary microglia; assay: RT-PCR for CXCL10 and IFNβ transcripts in primary microglia (wildtype, tk KO, STING^gt/gt); format: cell-based, mouse; settings: 200 μM, 6 hours
Description: Mice were housed and bred according to the Institutional Animal Care and Use Committee guidelines. Primary microglia and astrocytes were isolated from P0-P3 C57BL/6 mouse pups. Cortices from pups were isolated, meninges removed and tissue was dissociated using a 25-gauge needle. Two cortices were plated on each poly-L-lysine coated T-75 flasks in DMEM/F12+10% FBS+1% penicillin/streptomycin. Microglia and astrocyte co-cultures were maintained for 3 weeks, after which microglia were isolated using CD11b magnetic beads (Miltenyi Biotec) according to the manufacturer's instructions. Isolated microglia were allowed to recover for 1-2 days and processed for cellular assays described above.
For tk KO experiments only, microglia were isolated from adult mouse brains using the neural dissociation kit (Miltenyi Biotec) according to manufacturer's protocol followed by CD11b magnetic bead enrichment. Isolated cells were cultured for 3-4 days before the experiment.
RNA was isolated from cells using RNeasy mini kit from Qiagen. DNased RNA was converted to cDNA using SuperScript III reverse transcriptase kit (Life technologies). The cDNA was used to quantify specific targets using SYBR green in Roche Lightcycler 480. ΔΔCt values normalized against the experimental control to determine fold change in mRNA for each sample compared to untreated or vehicle treated control. β-actin or Ubc or both were used as housekeeping genes. Primer sequences were obtained from PrimerBank. Fold change is shown compared to the vehicle treated or untreated cells, unless otherwise noted.

[6] = test system: THP-1 human monocyte cells; assay: RT-PCR for CXCL10 in THP-1 cells; format: cell-based; settings: 200 μM, 8-24 hours
Description: as §1, with “Roche). […]” for “Roche).”

[7] = STING^gt/gt mice with EAE, day 18
[8] = STING^gt/gt mice, 18 days following disease induction
[9] = cerebella of wildtype mice with EAE, day 18
[10] = BV-2 culture supernatants, no exogenous stimulation, 24 hours GCV
[11] = adult tk1 knockout primary microglia
[12] = primary microglia lacking functional STING

Nc1nc(O)c2ncn(COC(CO)CO)c2n1 [GCV, Ganciclovir]
overall Iba1 immunoreactivity [1, 7]: trend towards reducing | overall cell proliferation [1, 7]: no reduction | proliferating T-cells [1, 7]: no reduction | proliferating microglia [1, 7]: no reduction | disease severity and incidence compared to untreated mice [1, 8]: not significantly different | lethality compared to untreated mice [1, 8]: even higher | effect on EAE in mice lacking STING ([1]; STING^gt/gt mice, GCV 100 mg/kg daily): only partially ameliorated EAE during the early phase of disease | CD3+BrDU+ proliferating T-cells [1, 9]: did not change | Iba1+BrDU+ proliferating microglia [1, 9]: significantly decreased | numbers of BrDU+ proliferating cells [1, 9]: significantly decreased | numbers of Iba1+ microglia [1, 9]: significantly decreased | lethality ([1]; wildtype mice, 18 days following disease induction, untreated 20%): 0% | disease incidence ([1]; wildtype mice, 18 days following disease induction, untreated 100%): 40% | disease severity (EAE score) ([1]; wildtype mice, GCV 100 mg/kg intra-peritoneally daily from day 3): drastically reduces disease severity | toxicity (cell viability) [2]: without causing any toxicity | microglial nitric oxide production (nitrite assay) [3]: reduction | CCL2 ([4]; 100 μM GCV, 24 hours): 28.8 ± 1.08 pg/mL | IL12p70 ([4]; 100 μM GCV, 24 hours): 0.34 ± 0.05 pg/mL | IL17A ([4]; 100 μM GCV, 24 hours): 3.5 ± 0.12 pg/mL | MCSF ([4]; 100 μM GCV, 24 hours): 23.76 ± 3.77 pg/mL | MIP1β ([4]; 100 μM GCV, 24 hours): 537.14 ± 449.94 ng/mL | MIP2 ([4]; 100 μM GCV, 24 hours): 14.77 ± 1.50 pg/mL | TGFβ ([4]; 100 μM GCV, 24 hours): 6.04 ± 0.58 pg/mL | VEGF ([4]; 100 μM GCV, 24 hours): 1.65 ± 0.51 pg/mL | CCL2 ([4]; 200 μM GCV, 24 hours): 28.25 ± 2.19 pg/mL | IL12p70 ([4]; 200 μM GCV, 24 hours): 0.16 ± 0.11 pg/mL | IL17A ([4]; 200 μM GCV, 24 hours): 2.54 ± 1.28 pg/mL | IL22 ([4]; 200 μM GCV, 24 hours): 3.09 ± 2.25 pg/mL | MCSF ([4]; 200 μM GCV, 24 hours): 25.48 ± 8.28 pg/mL | MIP1β ([4]; 200 μM GCV, 24 hours): 4.13 ± 3.36 ng/mL | MIP2 ([4]; 200 μM GCV, 24 hours): 13.02 ± 4.25 pg/mL | TGFβ ([4]; 200 μM GCV, 24 hours): 5.36 ± 3.30 pg/mL | VEGF ([4]; 200 μM GCV, 24 hours): 1.56 ± 0.27 pg/mL | secreted CCL5 protein [4, 10]: significantly increasing | secreted CXCL10 protein [4, 10]: significantly increasing | secreted IL-18 protein [4, 10]: decreasing | secreted IL-22 protein [4, 10]: significantly increasing | secreted TNFα protein [4, 10]: significantly increasing | CXCL10 mRNA in microglia from tk1 knockout mice [5, 11]: at levels seen in treated wild type microglia | IFNβ mRNA in microglia from tk1 knockout mice [5, 11]: at levels seen in treated wild type microglia | induction of CXCL10 mRNA in STING^gt/gt primary microglia [5, 12]: failed to induce | induction of IFNβ mRNA in STING^gt/gt primary microglia [5, 12]: failed to induce | induction of CXCL10 mRNA in human monocyte cell line [6]: induced
